Data set [1] relates to Plasmodium berghei. Kind of data set: Antimalarial activity against Plasmodium berghei infected in mouse assessed as host survival time at 640 mg/kg, sc treated after 3 days of infection (reference value: 6.2 +/- 0.5 days). It counts as functional.
For data set [2], the system named is Plasmodium gallinaceum. Kind of data set: Antimalarial activity against Plasmodium gallinaceum B infected in chick assessed as host survival time at 320 mg/kg, sc treated immediately after infection. Type of data set: functional.
Data set [3] relates to Plasmodium berghei. Kind of data set: Antimalarial activity against Plasmodium berghei infected in mouse assessed as host survival time at 320 mg/kg, sc treated after 3 days of infection (reference value: 6.2 +/- 0.5 days). Type of data set: functional.
Data set [4] has as its system Gallus gallus. Kind of data set: Toxicity in chick at 320 mg/kg, sc. Type of data set: organism-based. The arrangement: dose 320 mg/kg, route subcutaneous. The note with it: chicken, in vivo.
In data set [5] the test system is Mus musculus. Kind of data set: Toxicity in mouse at 640 mg/kg, sc. It counts as organism-based. More on the design: dose 640 mg/kg, route subcutaneous. To be noted: in vivo.
Data set [6] relates to Plasmodium gallinaceum. Kind of data set: Antimalarial activity against Plasmodium gallinaceum B infected in chick assessed as host survival time at 160 mg/kg, sc treated immediately after infection. Type of data set: functional.
Data set [7] deals with Plasmodium gallinaceum. Kind of data set: Antimalarial activity against Plasmodium gallinaceum B infected in chick assessed as host survival time at 120 mg/kg, sc treated immediately after infection. Type of data set: functional, organism-based. More on the design: dose 120 mg/kg.
In data set [8] the test system is Gallus gallus. Kind of data set: Toxicity in chick at 120 mg/kg, sc. Type of data set: organism-based. More on the design: dose 120 mg/kg, route subcutaneous. To be noted: chicken, in vivo.
Data set [9] has as its system Plasmodium berghei. Kind of data set: Antimalarial activity against Plasmodium berghei infected in mouse assessed as host survival time at 160 mg/kg, sc treated after 3 days of infection (reference value: 6.2 +/- 0.5 days). Type of data set: functional. The note with it: route subcutaneous.
Data set [10] has as its system Plasmodium berghei. The data set is described as follows: Antimalarial activity against Plasmodium berghei infected in mouse assessed as host cured at 320 to 640 mg/kg, sc treated after 3 days of infection. Type of data set: functional, organism-based.
Data set [11] deals with Plasmodium gallinaceum. The data set is described as follows: Antimalarial activity against Plasmodium gallinaceum B infected in chick assessed as host survival time at 80 mg/kg, sc treated immediately after infection. Type of data set: functional, organism-based. More on the design: dose 80 mg/kg.
Data set [12] concerns Gallus gallus. Kind of data set: Toxicity in chick at 160 mg/kg, sc. More on the design: dose 160 mg/kg, route subcutaneous. The note with it: chicken, in vivo. Type of data set: organism-based.

Calls of active or inactive are those of the source. The rule behind the calls is not given here.

Take `CN1CCCC1CC/N=c1\cc(-c2ccc(Cl)c(Cl)c2)sc2ccc(F)cc12` (centres undefined): the MST result in [1] and in [2] was “inactive” in each case.
On to `Clc1ccc2sc(-c3ccccc3)c/c(=N\CCCCC3CCCCC3)c2c1`, for which the MST result in data set [1] and in data set [2] was “inactive” throughout.
Take `CN(C)CCC/N=c1\cc(-c2ccccc2)sc2ccc(Br)cc12.Cl`: in data set [3] (route subcutaneous), the MST worked out at 12.6 days.
For the molecule `CCN(CC)CCCC(C)/N=c1\cc(-c2ccc(Cl)cc2)sc2ccc(Cl)cc12.Cl` (centres undefined), the MST entry in [1] is “inactive”. In addition, in [2] (route subcutaneous), the MST came to 4.7 days.
Turning to `OCCN1CCN(CC/N=c2\cc(-c3ccc(Cl)cc3)sc3ccc(Cl)cc23)CC1`, the MST entry in data set [1] and in data set [2] was “inactive” throughout.
For the molecule `Clc1ccc2sc(-c3ccccc3)c/c(=N\c3cccnc3)c2c1`, the MST result in [2] and in data set [3] was “inactive” in each case.
`CN(C)CCC/N=c1\cc(-c2ccccc2)sc2ccc(Cl)cc12.Cl.O`: the MST in data set [1] (route subcutaneous) amounted to 13.6 days.
Turning to `Cl.OCCN1CCN(CCCC/N=c2\cc(-c3ccc(Cl)cc3)sc3ccc(Cl)cc23)CC1`, the MST in data set [1] (route subcutaneous) amounted to 7.9 days; in [3] (route subcutaneous), 7.4 days. Besides, the Activity entry in data set [4] and in data set [5] was “Toxic” throughout.
With `CCN(CC)CCCC(C)/N=c1\cc(-c2ccc(Cl)c(Cl)c2)sc2ccc(Br)cc12` (centres undefined), the MST result in data set [6] and in data set [3] was “inactive” in each case.
`Clc1ccc(-c2c/c(=N\Cc3ccccn3)c3cc(Cl)ccc3s2)cc1`: the MST entry in data set [2] and in data set [3] was “inactive” throughout.
On to `Cl.Clc1ccc2sc(-c3ccccc3)c/c(=N\CCCN3CCOCC3)c2c1`, for which the MST in data set [1] (route subcutaneous) was 6.8 days.
As to `CCN(CC)CCCC(C)/N=c1\cc(-c2ccc(Cl)c(Cl)c2)sc2ccc(F)cc12` (centres undefined), the MST result in data set [1] and in data set [7] was “inactive” throughout.
For the molecule `OCCN1CCN(CCCC/N=c2\cc(C34CC5CC(CC(C5)C3)C4)sc3ccc(Br)cc23)CC1`, the MST result in data set [7] and in data set [3] was “inactive” throughout. In addition, the Activity result in data set [8] is on record as “Toxic”.
`CN1CCN(CCC/N=c2\cc(-c3ccccc3)sc3ccc(Cl)cc23)CC1`: the MST result in [2] was “inactive”. The MST in data set [3] (route subcutaneous) was determined as 7.3 days.
Turning to `CCN(CC)CCCC(C)/N=c1\cc(-c2ccccc2)sc2ccc(Br)cc12.Cl` (centres undefined), the MST result in data set [6] is “inactive”. Also, the MST in data set [9] is 9.5 days. Besides, the result in data set [10] was Active.
In the case of `Clc1ccc(-c2c/c(=N\CCCN3CCOCC3)c3cc(Br)ccc3s2)cc1Cl`, the MST in [1] (route subcutaneous) stood at 10.5 days. Further, in data set [2], the MST result is “inactive”.
Take `CCN(CC)CCCC(C)/N=c1\cc(-c2ccc(Cl)cc2)sc2ccc(Br)cc12.Cl` (centres undefined): the MST in data set [6] (route subcutaneous) worked out at 5 days. Moreover, the MST result in data set [3] is “inactive”.
As to `CN(C)CCC/N=c1\cc(-c2ccc(Cl)cc2)sc2ccccc12.Cl`, the outcome in [10] was Active. Further, the Activity entry in data set [5] is “Toxic”.
For `O=C(NCCC/N=c1\cc(-c2ccccc2)sc2ccc(Cl)cc12)OCc1ccccc1`, the MST entry in data set [1] was “inactive”.
Turning to `CCN(CC)CCCC(C)/N=c1\cc(-c2ccc(Cl)cc2)sc2ccccc12.Cl` (centres undefined), the MST result in data set [11] and in data set [3] was “inactive” each time. The Activity entry in data set [12] and in [5] was “Toxic” in each case.
On to `CN(C)CC/N=c1\cc(-c2ccccc2)sc2ccc(Cl)cc12`, for which the MST entry in data set [1] was “inactive”.
With `CN1CCN(CCC/N=c2\cc(-c3ccc(Cl)cc3)sc3ccc(Br)cc23)CC1`, the MST result in data set [6] and in data set [3] was “inactive” throughout.
Take `CN1CCCC1CC/N=c1\cc(-c2ccccc2)sc2ccc(Cl)cc12` (centres undefined): the MST in data set [3] (route subcutaneous) came to 7 days.
On to `CCN(CC)CCC/N=c1\cc(-c2ccccc2)sc2ccc(Cl)cc12.NS(=O)(=O)O`, for which the MST in [1] (route subcutaneous) was 10.3 days; in data set [3] (route subcutaneous), 9.1 days. Also, in data set [2], the MST result was “inactive”.
As to `CCN(CC)CCCC(C)/N=c1\cc(-c2ccc(F)cc2)sc2ccc(F)cc12.Cl` (centres undefined), the MST result in [1] is “inactive”. For the same molecule, the Activity entry in [8] is on record as “Toxic”.
For the molecule `Clc1ccc2sc(-c3ccccc3)c/c(=N\CCN3CCCC3)c2c1`, the MST entry in [1] was “inactive”.
In the case of `CN1CCN(CCC/N=c2\cc(-c3ccc(Cl)cc3)sc3ccc(Cl)cc23)CC1`, the MST in data set [9] amounted to 6.2 days; in data set [2] (route subcutaneous), 3.4 days; in [3] (route subcutaneous), 11.2 days. Further, the result in data set [10] was Active.
`CCN(CC)CCCC(C)/N=c1\cc(C23CC4CC(CC(C4)C2)C3)sc2ccc(Cl)cc12.Cl` (centres undefined): the MST entry in [6] and in data set [1] was “inactive” each time. In data set [12], the Activity entry is on record as “Toxic”.
`CN1CCN(CCC/N=c2\cc(-c3ccc(Cl)cc3)sc3ccccc23)CC1`: the MST in data set [3] (route subcutaneous) turned out to be 6.9 days.
As to `CCN(CC)CCCC(C)/N=c1\cc(-c2ccccc2)sc2ccc(Cl)cc12.Cl` (centres undefined), the MST in data set [9] came out at 8 days; in data set [3] (route subcutaneous), 10.6 days. For the same molecule, the result in [10] was Active. The Activity entry in data set [4] is “Toxic”.
Turning to `Clc1ccc(-c2c/c(=N\CCCCC3CCCCC3)c3cc(Cl)ccc3s2)cc1`, the MST entry in data set [1] and in data set [2] was “inactive” throughout.
Consider `Cl.Clc1ccc(-c2c/c(=N\CCCN3CCCCC3)c3cc(Cl)ccc3s2)cc1`, for which the MST entry in data set [1] was “inactive”. Besides, the MST in [2] (route subcutaneous) was found to be 5.2 days.
On to `Clc1ccc2sc(-c3ccccc3)c/c(=N\C34CC5CC(CC(C5)C3)C4)c2c1`, for which the MST entry in data set [1] and in data set [2] was “inactive” in each case.
For the molecule `CN(C)CCC/N=c1\cc(-c2ccc(Cl)cc2)sc2ccc(Cl)cc12`, the MST in data set [6] (route subcutaneous) came out at 3.4 days; in data set [9], 7 days; in data set [2] (route subcutaneous) it was 4.4 days; in data set [3] (route subcutaneous), 9.8 days. In addition, the outcome in data set [10] was Active.
Consider `CCN(CC)CCCC(C)/N=c1\cc(-c2ccc(F)cc2)sc2ccc(Br)cc12.Cl` (centres undefined), for which the MST result in [6] was “inactive”. In addition, the MST is 10.1 days in [1] (route subcutaneous) and 6.9 days in [3] (route subcutaneous). In addition, in data set [4], the Activity result was “Toxic”.
On to `N=C(N)N/N=c1\cc(-c2ccccc2)sc2ccc(Cl)cc12`, for which, in [1] (route subcutaneous), the MST came out at 6.2 days.
Regarding `Clc1ccc2sc(-c3ccccc3)c/c(=N\C3CN4CCC3CC4)c2c1` (centres undefined), the MST result in data set [1] and in [2] was “inactive” each time.
On to `CCN(CC)CCCC(C)/N=c1\cc(-c2ccc(Cl)c(Cl)c2)sc2ccc(OC)cc12` (centres undefined), for which the MST entry in data set [7] was “inactive”.
As for `NCCC/N=c1\cc(-c2ccccc2)sc2ccc(Cl)cc12`, the MST entry in data set [1] was “inactive”.
